{"source": "patent US20200138744A1", "about": "“METHODS OF TREATING PANCREATIC CANCER USING COENZYME Q10” (Berg LLC, priority 2018, published 2020)", "key": {"[1]": {"conditions": "Phase I clinical trial; monotherapy and in combination with gemcitabine; IV", "source_text": "(§1) The composition comprising Coenzyme Q10 evaluated in this study is a ubidecarenone containing intravenous (IV) nanodispersion that switches cancer energy generation from glycolysis to mitochondrial oxidative phosphorylation to elicit an anticancer effect."}, "[2]": {"test_system": "pancreatic models", "assay": "Preclinical in vivo pancreatic models, survival", "conditions": "IV administration, alone and in combination with gemcitabine", "source_text": "as §1"}, "[3]": {"assay": "Phase 2 clinical study, adverse events / toxicity profile", "conditions": "for Patients with an AE: safety population (31 patients), % of all 31", "description": "Eligible patients (aged ≥18 y) were relapsed/refractory to standard treatment and met inclusion/exclusion criteria. […] Each received either two 72-hr infusions of 110 mg/kg IV Coenzyme Q10 alone (Monotherapy) or in combination with gemcitabine (Combination Therapy), per week. Tumor response was evaluated at week 10 and then every 8 weeks. Clinical assessments included investigator observations and patient reports.\n(§2) A Coenzyme Q10 Nanosuspension Injection (40 mg/mL) was administered IV over 144 hours. Each patient received 2 consecutive 72-hour infusions per week. Monotherapy arm patients received a Coenzyme Q10 dose of 110 mg/Kg only weekly. Patients in the combination therapy arm received a Coenzyme Q10 dose of 110 mg/Kg and gemcitabine IV once weekly (starting at week 3) at a starting dose of 1000 mg/m^2."}, "[4]": {"test_system": "metastatic pancreatic cancer", "assay": "Phase 2 clinical study, efficacy (RECIST 1.1, TTP, PFS, OS)", "description": "Eligible patients (aged ≥18 y) were relapsed/refractory to standard treatment and met inclusion/exclusion criteria. […] Each received either two 72-hr infusions of 110 mg/kg IV Coenzyme Q10 alone (Monotherapy) or in combination with gemcitabine (Combination Therapy), per week. Tumor response was evaluated at week 10 and then every 8 weeks. Clinical assessments included investigator observations and patient reports. This study occurred in two parts: Part 1 of the study enrolled ten (10) patients in the Coenzyme Q10 (monotherapy arm) and ten (10) patients in the Coenzyme Q10 plus gemcitabine (combination therapy arm) with intent to enroll the additional 15 patients (Part 2) into the applicable treatment arm(s) based on RECIST v1.1 clinical response.\nPatients with no prior gemcitabine treatments prior to screening for the study, or prior gemcitabine treatment >3 months prior to screening for the study were assigned to the combination therapy group. Patients with prior gemcitabine discontinued due to toxicity in prior treatment, patients unable to tolerate a dose of 800 mg/m^2 weekly at any point due to toxicity, and patients with prior gemcitabine treatment ≤3 months prior to screening for the study were assigned to the monotherapy group.\nas §2\nThe primary objective of the study was to evaluate the Overall Response Rate (ORR) in patients treated with the combination of Coenzyme Q10 with gemcitabine or Coenzyme Q10 as a monotherapy. The secondary objectives were to evaluate Overall Survival (OS), Progression-Free Survival (PFS) overall and at around 10 weeks (equal to 2 cycles of treatment), Time to Progression (TTP), Tumor Response using Adaptive Molecular Responses (multi-omic molecular profiling), the toxicity profile of Coenzyme Q10 with gemcitabine and as monotherapy when given over 144-hour intravenous (IV) infusion in patients with advanced pancreatic cancer, changes in carbohydrate antigen (CA) 19-9 levels, and patient reported Quality of Life (QOL) using the validated FACT-HEP PRO.\nThe study described above in Example 1 was continued and additional patients were evaluated."}, "[5]": {"conditions": "treatment-emergent, safety population"}, "[6]": {"conditions": "Example 1, overall current population"}, "[7]": {"conditions": "Example 1, preliminary, both arms"}}}
{"smiles": "COC1=C(OC)C(=O)C(C/C=C(\\C)CC/C=C(\\C)CC/C=C(\\C)CC/C=C(\\C)CC/C=C(\\C)CC/C=C(\\C)CC/C=C(\\C)CC/C=C(\\C)CC/C=C(\\C)CCC=C(C)C)=C(C)C1=O", "note": "[Coenzyme Q10]", "values": [{"measurement": "MTD", "setting": "[1]", "result": 110, "unit": "mg/kg"}, {"measurement": "duration of survival outcomes", "setting": "[2]", "result": "significantly improved"}, {"measurement": "patients who experienced at least 1 AE", "setting": "[3]; Example 1", "result": "All"}, {"measurement": "INR increase, frequency of AE", "setting": "[3]; Example 1, 31 treated patients", "result": 48.4, "unit": "%"}, {"measurement": "abdominal pain, frequency of AE", "setting": "[3]; Example 1, 31 treated patients", "result": 35.5, "unit": "%"}, {"measurement": "fatigue, frequency of AE", "setting": "[3]; Example 1, 31 treated patients", "result": "38/7"}, {"measurement": "thrombocytopenia, frequency of AE", "setting": "[3]; Example 1, 31 treated patients", "result": 35.5, "unit": "%"}, {"measurement": "tolerability", "setting": "[3]; Example 1, Phase 2", "result": "well-tolerated"}, {"measurement": "AEs considered definitely related to study drug", "setting": "[3]; Example 1, number of AEs", "result": 10}, {"measurement": "AEs considered possibly related to study drug", "setting": "[3]; Example 1, number of AEs", "result": 19}, {"measurement": "AEs considered probably related to study drug", "setting": "[3]; Example 1, number of AEs", "result": 14}, {"measurement": "most common AE's", "setting": "[3]; Example 2", "result": "GI related"}, {"measurement": "tolerability", "setting": "[3]; Example 2", "result": "well tolerated"}, {"measurement": "Number of AEs", "setting": "[3]; [5]", "result": 347}, {"measurement": "Subjects with any AE leading to study drug discontinuation", "setting": "[3]; [5]", "result": "4 (12.9) N (%)"}, {"measurement": "Subjects with any Infusion reactions", "setting": "[3]; [5]", "result": "0 N (%)"}, {"measurement": "Subjects with any Serious AE", "setting": "[3]; [5]", "result": "12 (38.7) N (%)"}, {"measurement": "Subjects with any ≥Grade 3 AE", "setting": "[3]; [5]", "result": "31 (100) N (%)"}, {"measurement": "Patients with an AE", "setting": "[3]; treatment-emergent, listed as Coenzyme Q10-IV", "result": "31 (100) N (%)"}, {"measurement": "Patients with an AE", "setting": "[3]; treatment-emergent, listed as Mono", "result": "13 (41.9) N (%)"}, {"measurement": "mean overall survival", "setting": "[4]; [6]", "result": 125, "unit": "days"}, {"measurement": "mean time to progression (TTP)", "setting": "[4]; [6]", "result": 68, "unit": "days"}, {"measurement": "median overall survival", "setting": "[4]; [6]", "result": 108, "unit": "days"}, {"measurement": "median time to progression (TTP)", "setting": "[4]; [6]", "result": 53, "unit": "days"}, {"measurement": "patients with SD <4 months", "setting": "[4]; [7]", "result": 4}, {"measurement": "patients with SD >4 months", "setting": "[4]; [7]", "result": 3}, {"measurement": "stable disease (SD) noted, number of patients by arm", "setting": "[4]; Example 1, preliminary, of 13 evaluable patients", "result": 1}, {"measurement": "stable disease (SD) noted, number of patients", "setting": "[4]; Example 1, preliminary, of 13 evaluable patients, both arms", "result": 7}, {"measurement": "best ORR of stable disease (SD), share of ATC population", "setting": "[4]; Example 2, adequately treated cohort, n=9/18, with gemcitabine", "result": 50, "unit": "%"}, {"measurement": "median Progression-Free Survival (PFS)", "setting": "[4]; Example 2, with gemcitabine, 95% CI 70-131, FIG. 4", "result": 118, "unit": "days"}, {"measurement": "median time to progression (TTP)", "setting": "[4]; Example 2, with gemcitabine, 95% CI 70-147, FIG. 3", "result": 121, "unit": "days"}, {"measurement": "median Overall Survival (OS)", "setting": "[4]; Example 2, with gemcitabine, 95% CI 131-228, FIG. 5", "result": 218, "unit": "days"}, {"measurement": "correlation of time of Coenzyme Q10 exposure with time to progression", "setting": "[4]; FIG. 1, monotherapy or combination therapy", "result": "positively correlated"}, {"measurement": "correlation of time of Coenzyme Q10 exposure with overall survival", "setting": "[4]; FIG. 2, monotherapy or combination therapy", "result": "positively correlated"}, {"measurement": "Discontinuation from the study: Disease Progression", "setting": "[4]; Overall to Date (N = 47)", "result": "12 (25.5) N (%)"}]}
